Patent publication US10065990B2, “Cyclic peptide compound, and preparation method, pharmaceutical composition and use thereof” (HANGZHOU GUANYU BIO-MEDICAL CO., LTD, priority 2013, dated 2018)
Read-outs that look alike come from different tables or passages of the source.

Assays:
[1] = test system: DU145 (human prostate cancer cells); test: MTT cancer cell growth inhibition; type: cell-based; conditions: Homo sapiens, DU-145, 72 h, MTT, 72 hours incubation, read-out: GI50 Du1
How it was run: (§1)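 Absorbance at 570 nm of DMSO-dissolved formazan, formed during a 4 h MTT incubation, served as the viability measure. Cells had been exposed 72 h to drug at 10^−5–10^−10 M final; GI50 was calculated from these readings.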

[2] = test system: BGC-823 (human gastric cancer cells); test: MTT cancer cell growth inhibition; type: cell-based; conditions: Homo sapiens, BGC-823, 72 h, MTT, 72 hours incubation, read-out: GI50 BG
How it was run: as §1

[3] = test system: U937 (human leukemia cells); test: MTT cancer cell growth inhibition; type: cell-based; conditions: Homo sapiens, U-937, 72 h, MTT, 72 hours incubation, read-out: GI50 U93
How it was run: as §1

[4] = test system: lncap (prostate cancer cells); test: MTT cancer cell growth inhibition; type: cell-based; conditions: Homo sapiens, LNCaP, 72 h, MTT, 72 hours incubation, read-out: GI50 lnca
How it was run: as §1

[5] = test system: MCF-7 (human breast cancer cells); test: MTT cancer cell growth inhibition; type: cell-based; conditions: Homo sapiens, MCF7, 72 h, 72 hours incubation, read-out: GI50 MCF
How it was run: as §1

[6] = test system: Hela (human cervical cancer cells); test: MTT cancer cell growth inhibition; type: cell-based; conditions: Homo sapiens, HeLa, 72 h, MTT, 72 hours incubation, read-out: GI50 Hela
How it was run: as §1

[7] = test system: H1975 (non-small cell lung adenocarcinoma); test: MTT cancer cell growth inhibition; type: cell-based; conditions: Homo sapiens, NCI-H1975, 72 h, MTT, 72 hours incubation, H1975 cells; read-out: GI50 H1975
How it was run: as §1

[8] = test system: MDA-MB-231 (breast cancer cells); test: MTT cancer cell growth inhibition; type: cell-based; conditions: Homo sapiens, MDA-MB-231, 72 h, read-out: GI50 MDA-MB-231, MTT, 72 hours incubation, MDA-MB-231 cells
How it was run: as §1

[9] = test system: PANC-1 (Pac-1, human pancreatic cancer cells); test: MTT cancer cell growth inhibition; type: cell-based; conditions: Homo sapiens, PANC-1, 72 h, MTT, 72 hours incubation, read-out: GI50 PAN
How it was run: as §1

[10] = test system: K562 (human leukemia cells); test: MTT cancer cell growth inhibition; type: cell-based; conditions: Homo sapiens, K562, 72 h, MTT, 72 hours incubation, K562 cells; read-out: GI50 K562
How it was run: as §1

[11] = test system: MOLT-4 (human acute lymphoblastic leukemia cells); test: MTT cancer cell growth inhibition; type: cell-based; conditions: Homo sapiens, MOLT-4, 72 h, MTT, 72 hours incubation, read-out: GI50 Mol
How it was run: as §1

[12] = test system: Huh-7 (human hepatoma cells); test: MTT cancer cell growth inhibition; type: cell-based; conditions: Homo sapiens, Huh-7, 72 h, MTT, 72 hours incubation, Huh-7 cells; read-out: GI50 Huh-7
How it was run: as §1

[13] = test system: Bel-7402 (human hepatoma cells); test: MTT cancer cell growth inhibition; type: cell-based; conditions: Homo sapiens, Bel-7402, 72 h, MTT, 72 hours incubation, Bel-7402 cells; read-out: GI50 Bel-7402
How it was run: as §1

[14] = test system: N-87 (human gastric cancer cells); test: MTT cancer cell growth inhibition; type: cell-based; conditions: Homo sapiens, 72 h, MTT, 72 hours incubation, N-87 cells; read-out: GI50 N-87
How it was run: as §1

[15] = test system: A549 (human lung cancer cells); test: MTT cancer cell growth inhibition; type: cell-based; conditions: Homo sapiens, A549, 72 h, MTT, 72 hours incubation, read-out: GI50 A54
How it was run: as §1

[16] = test system: KBM5-T315I (human chronic myelogenous leukemia); test: MTT cancer cell growth inhibition; type: cell-based; conditions: Homo sapiens, 72 h, MTT, 72 hours incubation, KBM5-T315I cells; read-out: GI50 KBM5-T315I
How it was run: as §1

[17] = test system: KBM-5 (human chronic myelogenous leukemia); test: MTT cancer cell growth inhibition; type: cell-based; conditions: Homo sapiens, KBM5, 72 h, MTT, 72 hours incubation, KBM-5 cells; read-out: GI50 KBM-5
How it was run: as §1

[18] = test system: HCC827 (human non-small cell lung cancer cells); test: MTT cancer cell growth inhibition; type: cell-based; conditions: Homo sapiens, HCC827, 72 h, MTT, 72 hours incubation, HCC827 cells; read-out: GI50 HCC827
How it was run: as §1

[19] = test system: HT1080 (human fibrosarcoma cells); test: MTT cancer cell growth inhibition; type: cell-based; conditions: Homo sapiens, HT-1080, 72 h, MTT, 72 hours incubation, read-out: GI50 HT1
How it was run: as §1

[20] = test system: SGC-7901 (human gastric cancer cells); test: MTT cancer cell growth inhibition; type: cell-based; conditions: Homo sapiens, SGC-7901, 72 h, MTT, 72 hours incubation, SGC-7901 cells; read-out: GI50 SGC-7901
How it was run: as §1

HDAC7 = target: T1, HDAC7 (Homo sapiens, UniProt Q8WUI4); test: HDAC biochemical activity measurement (fluorescent substrate deacetylation);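 as to all read-outs here: fluorogenic deacetylation assay using acetyl-lysine substrate at 20 µM, enzyme and compound incubated 30 min at 37 °C, then developer added, fluorescence read at 360/460 nm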; conditions: for IC50 HDAC7: 37° C. 30 minutes
T1 sequence (Q8WUI4 1-952): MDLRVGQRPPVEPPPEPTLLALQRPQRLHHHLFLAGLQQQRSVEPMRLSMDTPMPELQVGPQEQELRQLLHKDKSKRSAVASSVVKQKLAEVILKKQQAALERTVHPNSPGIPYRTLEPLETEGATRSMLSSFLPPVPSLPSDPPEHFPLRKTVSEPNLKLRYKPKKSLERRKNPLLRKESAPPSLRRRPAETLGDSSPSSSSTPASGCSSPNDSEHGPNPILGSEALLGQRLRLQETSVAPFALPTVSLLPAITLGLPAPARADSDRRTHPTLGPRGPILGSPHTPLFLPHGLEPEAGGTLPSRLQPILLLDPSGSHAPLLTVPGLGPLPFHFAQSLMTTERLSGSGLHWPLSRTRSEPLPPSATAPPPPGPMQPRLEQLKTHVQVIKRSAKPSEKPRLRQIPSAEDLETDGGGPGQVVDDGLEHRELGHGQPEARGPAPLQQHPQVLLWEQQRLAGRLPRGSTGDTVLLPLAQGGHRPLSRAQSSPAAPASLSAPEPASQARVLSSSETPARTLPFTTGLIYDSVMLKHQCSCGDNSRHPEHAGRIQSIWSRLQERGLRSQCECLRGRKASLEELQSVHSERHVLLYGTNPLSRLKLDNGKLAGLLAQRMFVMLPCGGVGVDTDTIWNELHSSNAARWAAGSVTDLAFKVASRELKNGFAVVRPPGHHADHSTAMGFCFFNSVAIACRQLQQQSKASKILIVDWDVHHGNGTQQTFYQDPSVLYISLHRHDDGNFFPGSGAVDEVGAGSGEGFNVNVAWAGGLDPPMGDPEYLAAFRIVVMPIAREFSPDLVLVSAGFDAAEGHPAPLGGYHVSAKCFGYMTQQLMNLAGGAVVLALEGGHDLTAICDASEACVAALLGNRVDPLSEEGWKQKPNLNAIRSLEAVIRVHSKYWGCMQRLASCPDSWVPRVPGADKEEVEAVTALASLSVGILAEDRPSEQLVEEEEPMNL

Structure (SMILES) | GI50 ([1]; DU145 cells) [nM] | GI50 ([2]; BGC-823 cells) [nM] | GI50 ([3]; U937 cells) [nM] | GI50 ([4]; lncap cells) [nM] | GI50 ([5]; MCF-7 cells) [nM] | GI50 ([6]; Hela cells) [nM] | GI50 [7] [nM] | GI50 [8] [nM] | GI50 ([9]; PANC-1 cells) [nM] | GI50 [10] [nM] | GI50 ([11]; MOLT-4 cells) [nM] | GI50 [12] [nM] | GI50 [13] [nM] | GI50 [14] [nM] | GI50 ([15]; A549 cells) [nM] | GI50 [16] [nM] | GI50 [17] [nM] | GI50 [18] [nM] | GI50 [20] [nM] | IC50 HDAC7 (HDAC7) | also measured
C/C=C1\NC(=O)c2nc(ccc2SC)CNC(=O)C[C@@H](/C=C/CCSC(C)=O)OC(=O)[C@H](Cc2ccccc2)NC1=O [Compound 186] | 100 | 40 | 40 | 30 | 50 | 70 | 63 | 39 | 50 | 39 | 30 | 16 | 52 | 28 | 30 | 21 | 36 | 89 | 43 | no activity | GI50 ([19]; HT1080 cells): 20 nM
C/C=C1\NC(=O)c2cc(SCC)cc(n2)CNC(=O)C[C@@H](/C=C/CCSC(=O)CCCCC)OC(=O)[C@H](C(C)C)NC1=O [Compound 254] | 60 | 60 | 40 | 10 | 50 | 40 | 18 | 81 | 10 | 78 | 40 | 46 | 31 | 64 | 40 | 42 | 53 | 35 | 87 | – | GI50 ([19]; HT1080 cells): 60 nM; IC50 (μM) HDAC7 (HDAC7): no activity
C/C=C1\NC(=O)c2nc(ccc2F)CNC(=O)C[C@@H](/C=C/CCS)OC(=O)[C@H](CC)NC1=O [Compound 109] | – | – | – | – | – | – | 31 | 126 | – | 28 | – | 46 | 56 | 61 | – | 71 | 82 | 51 | 42 | no activity | GI50 [1]: 40 nM; GI50 [2]: 20 nM; GI50 [3]: 40 nM; GI50 [4]: 30 nM; GI50 [5]: 20 nM; GI50 [6]: 70 nM; GI50 [9]: 70 nM; GI50 [11]: 30 nM; GI50 [15]: 50 nM; GI50 [19]: 70 nM
C/C=C1\NC(=O)c2cc(SC)cc(n2)CNC(=O)C[C@@H](/C=C/CCSC(C)=O)OC(=O)[C@H](Cc2ccccc2)NC1=O [Compound 187] | 50 | 60 | 60 | 60 | 20 | 40 | 23 | 11 | 60 | 45 | 30 | 85 | 43 | 42 | 60 | 41 | 21 | 75 | 38 | no activity | GI50 ([19]; HT1080 cells): 20 nM
C=C1NC(=O)c2cc(F)cc(n2)CNC(=O)C[C@@H](/C=C/CCS)OC(=O)[C@H](C)NC1=O [Compound 141] | – | – | – | – | – | – | 38 | 26 | – | 31 | – | 28 | 58 | 67 | – | 43 | 36 | 37 | 17 | no activity | GI50 [1]: 70 nM; GI50 [2]: 30 nM; GI50 [3]: 50 nM; GI50 [4]: 80 nM; GI50 [5]: 70 nM; GI50 [6]: 80 nM; GI50 [9]: 50 nM; GI50 [11]: 80 nM; GI50 [15]: 50 nM; GI50 [19]: 80 nM
C/C=C1\NC(=O)c2ccc(SC)c(n2)CNC(=O)C[C@@H](/C=C/CCSC(=O)CCC)OC(=O)[C@H](C(C)C)NC1=O [Compound 161] | 20 | 20 | 60 | 70 | 70 | 10 | 57 | 46 | 10 | 31 | 30 | 79 | 47 | 37 | 80 | 12 | 13 | 65 | 91 | no activity | GI50 ([19]; HT1080 cells): 50 nM
C/C=C1\NC(=O)c2nc(ccc2F)CNC(=O)C[C@@H](/C=C/CCS)OC(=O)[C@H](CCCCN)NC1=O [Compound 116] | – | – | – | – | – | – | 93 | 46 | – | 16 | – | 52 | 28 | 43 | – | 36 | 18 | 21 | 21 | no activity | GI50 [1]: 20 nM; GI50 [2]: 50 nM; GI50 [3]: 20 nM; GI50 [4]: 30 nM; GI50 [5]: 60 nM; GI50 [6]: 40 nM; GI50 [9]: 40 nM; GI50 [11]: 30 nM; GI50 [15]: 60 nM; GI50 [19]: 50 nM
